According to PubChem BioAssay (NCI):
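Five compound concentrations were applied to cells in 96-well plates for 48 hours; endpoints were derived by simple linear interpolation of the resulting dose-response curve. Abbreviation: GI50, concentration required for 50% inhibition of growth. TGI marks complete inhibition of growth.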

Tests used:
Assay in all cases: NCI-60 cell line screen, 48 h
U251 CNS = tested on: U251 CNS
SN12C renal = tested on: SN12C renal
A498 renal = tested on: A498 renal
KM12 colon = tested on: KM12 colon
HOP-92 NSCLC = tested on: HOP-92 NSCLC
OVCAR-4 ovarian = tested on: OVCAR-4 ovarian
M14 melanoma = tested on: M14 melanoma
RXF 393 renal = tested on: RXF 393 renal
NCI-H226 lung = tested on: NCI-H226 lung
HCT-116 colon = tested on: HCT-116 colon
HOP-62 NSCLC = tested on: HOP-62 NSCLC
IGROV1 ovarian = tested on: IGROV1 ovarian
SF-268 CNS = tested on: SF-268 CNS
MOLT-4 leukemia = tested on: MOLT-4 leukemia
PC-3 prostate = tested on: PC-3 prostate
MDA-MB-231 breast = tested on: MDA-MB-231 breast
EKVX NSCLC = tested on: EKVX NSCLC
MCF7 breast = tested on: MCF7 breast
UACC-257 melanoma = tested on: UACC-257 melanoma
COLO 205 colon = tested on: COLO 205 colon
BT-549 breast = tested on: BT-549 breast
HS 578T breast = tested on: HS 578T breast
A549 NSCLC = tested on: A549 NSCLC
NCI-H23 lung = tested on: NCI-H23 lung
LOX IMVI melanoma = tested on: LOX IMVI melanoma
SK-MEL-2 melanoma = tested on: SK-MEL-2 melanoma
CAKI-1 renal = tested on: CAKI-1 renal
TK-10 renal = tested on: TK-10 renal
SK-MEL-28 melanoma = tested on: SK-MEL-28 melanoma
DU-145 prostate = tested on: DU-145 prostate
NCI/ADR-RES ovarian = tested on: NCI/ADR-RES ovarian
HL-60(TB) leukemia = tested on: HL-60(TB) leukemia
SNB-19 CNS = tested on: SNB-19 CNS
SK-MEL-5 melanoma = tested on: SK-MEL-5 melanoma
SW-620 colon = tested on: SW-620 colon
CCRF-CEM leukemia = tested on: CCRF-CEM leukemia
K-562 leukemia = tested on: K-562 leukemia
UACC-62 melanoma = tested on: UACC-62 melanoma
NCI-H522 lung = tested on: NCI-H522 lung
SR leukemia = tested on: SR leukemia
OVCAR-8 ovarian = tested on: OVCAR-8 ovarian
ACHN renal = tested on: ACHN renal
NCI-H460 lung = tested on: NCI-H460 lung
HCT-15 colon = tested on: HCT-15 colon
OVCAR-5 ovarian = tested on: OVCAR-5 ovarian
RPMI-8226 leukemia = tested on: RPMI-8226 leukemia
SNB-75 CNS = tested on: SNB-75 CNS
786-0 renal = tested on: 786-0 renal
SF-295 CNS = tested on: SF-295 CNS
SK-OV-3 ovarian = tested on: SK-OV-3 ovarian
UO-31 renal = tested on: UO-31 renal
SF-539 CNS = tested on: SF-539 CNS
HCC-2998 colon = tested on: HCC-2998 colon
MALME-3M melanoma = tested on: MALME-3M melanoma
T-47D breast = tested on: T-47D breast
HT29 colon = tested on: HT29 colon

## CCn1c2ccccc2c2cc(-n3nncc3-c3ccccc3)ccc21
U251 CNS
  GI50: 116 nM
  TGI: > 100 µM
SN12C renal
  GI50: 800 nM
  TGI: > 100 µM
A498 renal
  GI50: 95.4 nM
  TGI: 799 nM
KM12 colon
  GI50: 49 nM
HOP-92 NSCLC
  TGI: > 77.6 µM
OVCAR-4 ovarian
  GI50: 29.7 µM
  TGI: > 100 µM
M14 melanoma
  GI50: 82.9 nM
  TGI: > 100 µM
RXF 393 renal
  GI50: 130 nM
  TGI: > 100 µM
NCI-H226 lung
  GI50: 519 nM
  TGI: > 100 µM
HCT-116 colon
  GI50: 72.2 nM
HOP-62 NSCLC
  GI50: 141 nM
  TGI: > 100 µM
IGROV1 ovarian
  GI50: 164 nM
  TGI: > 100 µM
SF-268 CNS
  GI50: 843 nM
  TGI: > 100 µM
MOLT-4 leukemia
  GI50: 350 nM
  TGI: > 100 µM
PC-3 prostate
  GI50: 139 nM
  TGI: > 100 µM
MDA-MB-231 breast
  GI50: 540 nM
  TGI: > 100 µM
EKVX NSCLC
  GI50: 532 nM
  TGI: > 100 µM
MCF7 breast
  GI50: 269 nM
  TGI: > 100 µM
UACC-257 melanoma
  GI50: 22.2 µM
  TGI: > 100 µM
COLO 205 colon
  GI50: 134 nM
  TGI: 438 nM
BT-549 breast
  GI50: 147 nM
  TGI: 2030 nM
HS 578T breast
  GI50: 61.5 nM
  TGI: > 100 µM
A549 NSCLC
  GI50: 208 nM
  TGI: > 100 µM
NCI-H23 lung
  GI50: 375 nM
  TGI: > 100 µM
LOX IMVI melanoma
  GI50: 129 nM
  TGI: > 100 µM
SK-MEL-2 melanoma
  GI50: 104 nM
  TGI: > 31.2 µM
CAKI-1 renal
  GI50: 77.5 nM
  TGI: > 100 µM
TK-10 renal
  GI50: > 73.8 µM
  TGI: > 100 µM
SK-MEL-28 melanoma
  GI50: > 64.4 µM
  TGI: > 100 µM
DU-145 prostate
  GI50: 375 nM
NCI/ADR-RES ovarian
  GI50: 53.4 nM
  TGI: > 100 µM
HL-60(TB) leukemia
  GI50: 69.7 nM
  TGI: > 20.3 µM
SNB-19 CNS
  GI50: 285 nM
  TGI: > 100 µM
SK-MEL-5 melanoma
  GI50: 435 nM
  TGI: 4.02 µM
SW-620 colon
  GI50: 73.2 nM
  TGI: > 100 µM
CCRF-CEM leukemia
  GI50: 203 nM
  TGI: > 100 µM
K-562 leukemia
  GI50: 40.7 nM
  TGI: > 100 µM
UACC-62 melanoma
  GI50: 61.8 nM
  TGI: > 100 µM
NCI-H522 lung
  GI50: 30.2 nM
  TGI: 145 nM
SR leukemia
  GI50: 37.5 nM
  TGI: > 100 µM
OVCAR-8 ovarian
  GI50: 300 nM
  TGI: > 100 µM
ACHN renal
  GI50: 301 nM
  TGI: > 100 µM
NCI-H460 lung
  GI50: 81 nM
  TGI: > 62.6 µM
HCT-15 colon
  GI50: 67 nM
  TGI: > 100 µM
OVCAR-5 ovarian
  GI50: 410 nM
  TGI: > 100 µM
RPMI-8226 leukemia
  GI50: 289 nM
  TGI: > 71.2 µM
SNB-75 CNS
  GI50: 26.6 nM
  TGI: 262 nM
786-0 renal
  GI50: 340 nM
  TGI: > 100 µM
SF-295 CNS
  GI50: 45.9 nM
  TGI: > 100 µM
SK-OV-3 ovarian
  GI50: 383 nM
  TGI: > 100 µM
UO-31 renal
  GI50: 649 nM
  TGI: > 100 µM
SF-539 CNS
  GI50: 123 nM
  TGI: 754 nM
HCC-2998 colon
  GI50: 277 nM
  TGI: > 52.4 µM
MALME-3M melanoma
  GI50: 2430 nM
  TGI: > 100 µM
T-47D breast
  TGI: > 100 µM
HT29 colon
  GI50: 117 nM
  TGI: 927 nM
